Measurements as given in patent publication US7611863B2, “Selective staining of biomembranes using voltage-sensitive dyes” (Max-Planck-Gesellschaft zur Foerderung der Wissenschaften …, priority 2004, dated 2009).

Experiments:
[1] = Dye-lipid binding by fluorescence lipid titration; format: physicochemical; settings: for KA/KP ratio of binding constants of alcohol and phosphate: liposome suspensions
Protocol: Dye-lipid binding. The binding of the dyes to lipid membranes was determined by fluorescence lipid titration^21 with large unilamellar vesicles (LUVs) made of 1-palmitoyl-2-oleoyl-phosphatidylcholine (POPC). The purity of the lipids was checked by 2-dimensional TLC^22. The vesicles were made by extrusion^23 in Tris-NaCl buffer (20 mM Tris, 100 mM NaCl, pH 8.1), using an extrusion apparatus and polycarbonate filters with 100 nm pore size (both Avestin Europe, Mannheim, Germany). Vesicle size was determined by quasielastic light scattering using an argon ion laser (Spectra-Physics, Darmstadt, Germany), a photomultiplier (Brookhaven Instruments, Vienna, Austria) and a correlator (ALV-5000, Langen, Germany). The lipid concentration was determined by a chromogenic enzyme assay (Biomerieux, Marcy I'Etoile, France). The standard deviation of three concentration measurements for every vesicle preparation was always below 4%. Vesicles were stored under argon at 4° C. in 15 ml Falcon Centrifuge Tubes (BD Labware Europe, Le Pont de Claix, France) and used within three days.
To measure dye binding constants, we prepared 1 mM solutions of the dyes 1-3 by ultrasonication in Ethanol (1) or Tris-NaCl buffer (2,3). […] In the same buffer, suspensions of POPC vesicles with concentrations ranging from 100 nM to 10 mM were prepared by dilution of stock solutions. Dye and lipid were pre-thermostatted to 25° C. […] The fluorescence emission recorded at 600 nm with excitation at 488 nm was used for the evaluation of the partition coefficients.
Dye binding to lipid. When styryl hemicyanines bind to lipid bilayers, their quantum yield of fluorescence is enhanced. […] We take advantage of that effect to examine the binding of Di-4-ASPP phosphate and Di-4-ASPP alcohol to lipid membranes by fluorescence titration^21. For comparison Di-4-ASPBS was also included in the investigation.
Dispersions of large lipid vesicles (Ø≈100 nm) were made from palmitoyl-oleoyl-phosphatidylcholine (POPC) with lipid concentrations ranging over five orders of magnitude. […] The fluorescence intensity was enhanced with increasing concentration of lipid for all three dyes. The enhancement was shifted to higher lipid concentrations in the order Di-4-ASPP alcohol, Di-4-ASPBS and Di-4-ASPP phosphate.
Binding. The dyes Di-10-phosphato-ASPBS (Di-10P-ASPBS) and Di-12-phosphato-ASPBS (Di-12P-ASPBS) as well as the corresponding products after enzymatic hydrolysis Di-10-hydroxy-ASPBS (Di-10A-ASPBS) and Di-12-hydroxy-ASPBS (Di-12A-ASPBS) were synthesized by organic chemical methods. Their binding to lipid membranes was tested by fluorescence lipid titration (cf. page 15, section dye binding to lipid). The binding constants amounted to 27 M^−1 (Di-10P-ASPBS), 250,000 M^−1 (Di-10A-ASPBS), 2100 M^−1 (Di-12P-ASPBS) and 3,000,000 M^−1 (Di-12P-ASPBS) (FIGS. 14 and 15 (center and right hand side)). The difference in binding constants between dye alcohol and dye phosphates (or dye precursors) therefore amounted to a factor of 10,000 for the pair Di-10P-ASPBS/Di-10A-ASPBS and to a factor of 1000 for the pair Di-12P-ASPBS/Di-12A-ASPBS. The binding curve for the more lipophilic pair Di-12P-ASPBS/Di-12A-ASPBS is shifted to […] lipid concentrations.

[2] = biological target: alkaline phosphatase from the human placenta (PLAP) (Homo sapiens, UniProt P05187); assay: Enzymatic dye hydrolysis (HPLC, isothermal titration calorimetry); format: biochemical
Protocol: Enzyme kinetics with ITC. We performed enzyme kinetic measurements with Di-4-ASPP phosphate as a substrate of PLAP by isothermal titration calorimetry (ITC). We used Tris-NaCl buffer (20 mM Tris, 100 mM NaCl, pH 8.1) without Zn^2+ and Mg^2+ although most alkaline phosphatases depend on these metals for maximum activity. However, divalent cations bind to lipid membranes and induce their aggregation and fusion^25. The pH-value is a compromise between optimal enzymatic activity (at pH 9.8) and compatibility with vesicles and cells. The microcalorimeter (VP-ITC, Microcal, Northampton, Mass., USA) was thermostatted to 25.0° C., with reference power set to 10 μcal/sec and a stirring speed of 310 rpm. The sample cell contained a PLAP solution of 0.19 DEA Units/ml activity and the syringe was filled with a 1 mM solution of Di-4-ASPP phosphate. The reference cell contained buffer only. Different amounts of dye were injected into the sample cell in separate experiments to cover a concentration range from 2 μM to 15 μM. To determine the heats of dilution alone, injections were carried out with pure buffer. For both hydrolysis and dilution, the baseline signal was approximated by linear or polynomial functions and subtracted from the raw signal resulting in a curve with a flat baseline. The dilution signal was subtracted from the signal of the enzymatic reaction to yield the final calorimeter tracing of enzymatic hydrolysis. The molar heat of reaction was obtained by integration. The initial velocities were determined from the average heat of reaction of the first 10 to 30 seconds after the onset of the reaction, using the mean molar heat of reaction as a proportionality constant. […]
Enzymatic dye hydrolysis. […] We evaluated the heat production per unit time that is proportional to the reaction rate, with the molar heat of reaction being the constant of proportionality^38. […] By calibration with that energy, the initial reaction velocity was evaluated.

Chain of alkaline phosphatase from the human placenta (PLAP) (P05187 23-506): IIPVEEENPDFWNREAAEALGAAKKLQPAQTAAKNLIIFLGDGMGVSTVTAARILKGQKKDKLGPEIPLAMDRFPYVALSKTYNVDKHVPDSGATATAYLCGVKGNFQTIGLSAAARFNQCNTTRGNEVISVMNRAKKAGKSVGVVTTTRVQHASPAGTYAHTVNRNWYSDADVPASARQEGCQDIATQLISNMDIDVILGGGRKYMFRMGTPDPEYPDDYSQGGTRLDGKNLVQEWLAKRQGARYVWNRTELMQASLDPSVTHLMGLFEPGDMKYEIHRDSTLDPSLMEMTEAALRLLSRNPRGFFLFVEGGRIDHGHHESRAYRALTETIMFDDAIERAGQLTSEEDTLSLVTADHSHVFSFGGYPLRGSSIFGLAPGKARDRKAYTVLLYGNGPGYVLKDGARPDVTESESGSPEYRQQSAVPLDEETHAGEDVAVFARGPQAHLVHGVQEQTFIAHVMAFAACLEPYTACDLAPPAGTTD

| difference in binding constants between dye alcohol and dye phosphate (precursor) ([1]; pair precursor/product dye) | acceptance as substrate by PLAP ([2]; ITC kinetics) | molar heat of hydrolysis (endothermal) ([2]; ITC, 25.0° C., Tris-NaCl pH 8.1) | average binding constant K to lipid membrane ([1]; POPC vesicles, Tris-NaCl buffer pH 8.1, 25° C., dye 0.5 μM) | KA/KP ratio of binding constants of alcohol and phosphate ([1]; dye concentration 9.8 μM) | KA/KP ratio of binding constants of alcohol and phosphate ([1]; low dye concentrations) | increment of the binding energy Δ(ΔG) relative to the alcohol ([1]; −RT ln(K/KA)) | Compound | conversion by soluble PLAP (HPLC analysis) ([2]; after incubation, enzyme removed by ultrafiltration) |
| --- | --- | --- | --- | --- | --- | --- | --- | --- |
| 1000 factor | – | – | – | – | – | – | Di-12-phosphato-ASPBS [Di-12P-ASPBS] | – |
| – | accepted by PLAP as a regular substrate | 0.263 ± 0.048 kcal/mol | 1140 ± 140 M⁻¹ | ≈ 7 | ≈ 16 | 1.63 kcal/mol | CCCCN(CCCC)c1ccc(/C=C/c2cc[n+](CCCOP(=O)([O-])O)cc2)cc1 [Di-4-ASPP phosphate] | quantitatively converted to Di-4-ASPP alcohol |
